Here are results for 7 compounds from patent US8642544B2, “N-terminus conformationally constrained GLP-1 receptor agonist compounds” (Amylin Pharmaceuticals, LLC, priority 2009, dated 2014).

One test concerns NIH/Swiss female mice. Nature of the test: in vivo basal glucose lowering assay. The conditions noted are these: Table 1, time in hours, subcutaneous injection, tail blood glucose at t=2 and 4 hours post dose. The method, then: Some compounds shown in Table 1 below were analyzed in an in vivo basal glucose lowering assay using the following procedure: A subcutaneous injection of either 200 μl phosphate-buffered saline (PBS) vehicle or test article was given immediately following baseline glucose (t=0) to NIH/Swiss female mice. Tail blood glucose samples were measured at t=2 and 4 hours post dose using a OneTouch® Ultra® (LifeScan, Inc., a Johnson & Johnson Company, Milpitas, Calif.). Body weight was measured daily. Significant test sample effects were identified by ANOVA (p<0.05), followed by Dunnett's post test using GraphPad Prism version 4.00 for Windows (GraphPad Software, San Diego Calif.).

The target of the next test is T1, GLP-1 receptor (Rattus norvegicus, UniProt P32301).
T1 construct: 96-well assay plate containing RIN m5f cell membranes in an ATP/GTP mixture; endogenous in cells; host or cells: RIN m5f cell membranes
T1 sequence (P32301 22-463): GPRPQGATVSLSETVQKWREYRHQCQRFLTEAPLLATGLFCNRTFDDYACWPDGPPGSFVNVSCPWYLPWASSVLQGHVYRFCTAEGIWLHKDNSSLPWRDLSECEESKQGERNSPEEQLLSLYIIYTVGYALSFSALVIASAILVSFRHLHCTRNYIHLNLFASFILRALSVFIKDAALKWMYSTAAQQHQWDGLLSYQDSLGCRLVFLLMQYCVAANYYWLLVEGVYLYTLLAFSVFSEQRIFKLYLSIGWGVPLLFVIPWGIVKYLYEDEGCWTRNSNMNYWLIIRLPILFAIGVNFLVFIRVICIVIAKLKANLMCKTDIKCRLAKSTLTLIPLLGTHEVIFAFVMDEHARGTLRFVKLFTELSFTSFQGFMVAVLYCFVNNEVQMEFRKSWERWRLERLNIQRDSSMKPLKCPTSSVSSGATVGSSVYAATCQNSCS
Nature of the test: in vitro functional assay at the GLP-1 receptor (cyclase, cAMP production in RIN m5f cell membranes). Format: biochemical. The conditions noted are these: Cyclase GLP-1 Receptor EC50 (nM). The protocol: The compounds shown in Table 1 below were analyzed in an in vitro functional assay at the GLP-1 receptor. The assay was conducted as follows: Membrane fractions were prepared from confluent cultures of RIN m5f cells. Compounds were serially diluted with an assay buffer, and then added to a 96-well assay plate containing RIN m5f cell membranes in an ATP/GTP mixture. Cyclase activities were determined by measuring the production of cAMP induced through GLP-1 receptor activation. Quantification of cAMP production was achieved through a competitive chemiluminescence assay with a biotinylated-cAMP probe using Perkin Elmer Fusion™-Alpha Microplate Analyzer (AlphaScreen™ technology). The compound EC50 values were obtained through fitting the concentration-response curves to a four-parameter logistic equation within GraphPad PRISM® software.
(In general: cAMP levels reflect the balance of adenylyl cyclase and phosphodiesterase activity.)

The mark [1] stands for this setting: Table 1, RIN m5f cell membranes, cAMP production (AlphaScreen).

Turning to `CC[C@H](C)[C@H](NC(=O)[C@H](Cc1ccccc1)NC(=O)[C@H](CC(C)C)NC(=O)[C@H](CCCNC(=N)N)NC(=O)[C@@H](NC(=O)[C@H](C)NC(=O)[C@H](CCC(=O)O)NC(=O)[C@H](CCC(=O)O)NC(=O)[C@H](CCC(=O)O)NC(=O)[C@H](CC(C)C)NC(=O)[C@H](CCC(N)=O)NC(=O)[C@H](CCCCN)NC(=O)[C@H](CO)NC(=O)[C@H](CC(C)C)NC(=O)[C@H](CC(=O)O)NC(=O)[C@H](CO)NC(=O)[C@@H](NC(=O)[C@H](Cc1ccccc1)NC(=O)[C@@H](NC(=O)CNC(=O)[C@@H]1CCCN1C(=O)CNC(=O)[C@@H](N)Cc1c[nH]cn1)[C@@H](C)O)[C@@H](C)O)C(C)C)C(=O)N[C@@H](CCC(=O)O)C(=O)N[C@@H](Cc1c[nH]c2ccccc12)C(=O)N[C@@H](CC(C)C)C(=O)N[C@@H](CCCCN)C(=O)N[C@@H](CCC(N)=O)C(=O)NCC(=O)NCC(=O)N1CCC[C@H]1C(=O)N[C@@H](CO)C(=O)N[C@@H](CCCCN)C(=O)N[C@@H](CCC(=O)O)C(=O)N[C@H](C(=O)N[C@H](C(=O)N[C@@H](CO)C(N)=O)[C@@H](C)CC)[C@@H](C)CC` [2B], the “In Vivo Glucose-Lowering Assay” value in the test with NIH/Swiss female mice was “more than 4 hours”.

On to `CC[C@H](C)[C@H](NC(=O)[C@H](Cc1ccccc1)NC(=O)[C@H](CC(C)C)NC(=O)[C@H](CCCNC(=N)N)NC(=O)[C@@H](NC(=O)[C@H](C)NC(=O)[C@H](CCC(=O)O)NC(=O)[C@H](CCC(=O)O)NC(=O)[C@H](CCC(=O)O)NC(=O)[C@H](CC(C)C)NC(=O)[C@H](CCC(N)=O)NC(=O)[C@H](CCCCN)NC(=O)[C@H](CO)NC(=O)[C@H](CC(C)C)NC(=O)[C@H](CC(=O)O)NC(=O)[C@H](CO)NC(=O)[C@@H](NC(=O)[C@H](Cc1ccccc1)NC(=O)[C@@H](NC(=O)CNC(=O)[C@@H]1CCCCN1C(=O)CNC(=O)[C@@H](N)Cc1c[nH]cn1)[C@@H](C)O)[C@@H](C)O)C(C)C)C(=O)N[C@@H](CCC(=O)O)C(=O)N[C@@H](Cc1c[nH]c2ccccc12)C(=O)N[C@@H](CC(C)C)C(=O)N[C@@H](CCCCN)C(=O)N[C@@H](CCC(N)=O)C(=O)NCC(=O)NCC(=O)N1CCC[C@H]1C(=O)N[C@@H](CO)C(=O)N[C@@H](CCCCN)C(=O)N[C@@H](CCC(=O)O)C(=O)N[C@H](C(=O)N[C@H](C(=O)N[C@@H](CO)C(N)=O)[C@@H](C)CC)[C@@H](C)CC` [2F], for which the “In Vivo Glucose-Lowering Assay” value in the test with NIH/Swiss female mice is reported as “more than 4 hours”.

On to `CC[C@H](C)[C@H](NC(=O)[C@H](Cc1ccccc1)NC(=O)[C@H](CC(C)C)NC(=O)[C@H](CCCNC(=N)N)NC(=O)[C@@H](NC(=O)[C@H](C)NC(=O)[C@H](CCC(=O)O)NC(=O)[C@H](CCC(=O)O)NC(=O)[C@H](CCC(=O)O)NC(=O)[C@H](CC(C)C)NC(=O)[C@H](CCC(N)=O)NC(=O)[C@H](CCCCN)NC(=O)[C@H](CO)NC(=O)[C@H](CC(C)C)NC(=O)[C@H](CC(=O)O)NC(=O)[C@H](CO)NC(=O)[C@@H](NC(=O)[C@H](Cc1ccccc1)NC(=O)[C@@H](NC(=O)CNC(=O)[C@@H]1C[C@@H](O)CN1C(=O)CNC(=O)[C@@H](N)Cc1c[nH]cn1)[C@@H](C)O)[C@@H](C)O)C(C)C)C(=O)N[C@@H](CCC(=O)O)C(=O)N[C@@H](Cc1c[nH]c2ccccc12)C(=O)N[C@@H](CC(C)C)C(=O)N[C@@H](CCCCN)C(=O)N[C@@H](CCC(N)=O)C(=O)NCC(=O)NCC(=O)N1CCC[C@H]1C(=O)N[C@@H](CO)C(=O)N[C@@H](CCCCN)C(=O)N[C@@H](CCC(=O)O)C(=O)N[C@H](C(=O)N[C@H](C(=O)N[C@@H](CO)C(N)=O)[C@@H](C)CC)[C@@H](C)CC` [2I], for which the “In Vivo Glucose-Lowering Assay” value with NIH/Swiss female mice is “more than 4 hours”.

Turning to `CC[C@H](C)[C@H](NC(=O)[C@H](Cc1ccccc1)NC(=O)[C@H](CC(C)C)NC(=O)[C@H](CCCNC(=N)N)NC(=O)[C@@H](NC(=O)[C@H](C)NC(=O)[C@H](CCC(=O)O)NC(=O)[C@H](CCC(=O)O)NC(=O)[C@H](CCC(=O)O)NC(=O)[C@H](CC(C)C)NC(=O)[C@H](CCC(N)=O)NC(=O)[C@H](CCCCN)NC(=O)[C@H](CO)NC(=O)[C@H](CC(C)C)NC(=O)[C@H](CC(=O)O)NC(=O)[C@H](CO)NC(=O)[C@@H](NC(=O)[C@H](Cc1ccccc1)NC(=O)[C@@H](NC(=O)[C@H]1CSSC[C@H](NC(=O)[C@@H](N)Cc2c[nH]cn2)C(=O)N2CCC[C@H]2C(=O)N1)[C@@H](C)O)[C@@H](C)O)C(C)C)C(=O)N[C@@H](CCC(=O)O)C(=O)N[C@@H](Cc1ccccc1)C(=O)N[C@@H](CC(C)C)C(=O)N[C@@H](CCCCN)C(=O)N[C@@H](CC(N)=O)C(N)=O` [8D], the EC50 – broadly, the concentration at which the effect is half-maximal – at GLP-1 receptor (setting [1]) worked out at 106 nM.

`CC[C@H](C)[C@H](NC(=O)[C@H](Cc1ccccc1)NC(=O)[C@H](CC(C)C)NC(=O)[C@H](CCCNC(=N)N)NC(=O)[C@@H](NC(=O)[C@H](C)NC(=O)[C@H](CCC(=O)O)NC(=O)[C@H](CCC(=O)O)NC(=O)[C@H](CCC(=O)O)NC(=O)[C@H](CC(C)C)NC(=O)[C@H](CCC(N)=O)NC(=O)[C@H](CCCCN)NC(=O)[C@H](CO)NC(=O)[C@H](CC(C)C)NC(=O)[C@H](CC(=O)O)NC(=O)[C@H](CO)NC(=O)[C@@H](NC(=O)[C@H](Cc1ccccc1)NC(=O)[C@@H](NC(=O)CN1CC[C@@H](C(=O)O)[C@H](NC(=O)[C@H](C)NC(=O)[C@@H](N)Cc2c[nH]cn2)C1=O)[C@@H](C)O)[C@@H](C)O)C(C)C)C(=O)N[C@@H](CCC(=O)O)C(=O)N[C@@H](Cc1c[nH]c2ccccc12)C(=O)N[C@@H](CC(C)C)C(=O)N[C@@H](CCCCN)C(=O)N[C@@H](CCC(N)=O)C(=O)NCC(=O)NCC(=O)N1CCC[C@H]1C(=O)N[C@@H](CO)C(=O)N[C@@H](CCCCN)C(=O)N[C@@H](CCC(=O)O)C(=O)N[C@H](C(=O)N[C@H](C(=O)N[C@@H](CO)C(=O)O)[C@@H](C)CC)[C@@H](C)CC` [16B]: the 50% effective concentration (EC50) at GLP-1 receptor (setting [1]) came to 0.18 nM.

Compound `CC[C@H](C)[C@H](NC(=O)[C@H](Cc1ccccc1)NC(=O)[C@H](CC(C)C)NC(=O)[C@H](CCCNC(=N)N)NC(=O)[C@@H](NC(=O)[C@H](C)NC(=O)[C@H](CCC(=O)O)NC(=O)[C@H](CCC(=O)O)NC(=O)[C@H](CCC(=O)O)NC(=O)[C@H](CCSC)NC(=O)[C@H](CCC(N)=O)NC(=O)[C@H](CCCCN)NC(=O)[C@H](CO)NC(=O)[C@H](CC(C)C)NC(=O)[C@H](CC(=O)O)NC(=O)[C@H](CO)NC(=O)[C@@H](NC(=O)[C@H](Cc1ccccc1)NC(=O)[C@@H](NC(=O)CNC(=O)[C@@H]1CCCN1C(=O)[C@H](C)NC(=O)CCc1c[nH]cn1)[C@@H](C)O)[C@@H](C)O)C(C)C)C(=O)N[C@@H](CCC(=O)O)C(=O)N[C@@H](Cc1c[nH]c2ccccc12)C(=O)N[C@@H](CC(C)C)C(=O)N[C@@H](CCCCN)C(=O)N[C@@H](CC(N)=O)C(=O)N[C@@H](CCCCNC(=O)CCCC[C@@H]1SC[C@@H]2NC(=O)N[C@@H]21)C(N)=O` [Compound 24D] showed an EC50 on GLP-1 receptor (Table 3, methods of Example 16) of 0.77 nM.

Consider `CC[C@H](C)[C@H](NC(=O)[C@H](Cc1ccccc1)NC(=O)[C@H](CC(C)C)NC(=O)[C@H](CCCNC(=N)N)NC(=O)[C@@H](NC(=O)[C@H](C)NC(=O)[C@H](CCC(=O)O)NC(=O)[C@H](CCC(=O)O)NC(=O)[C@H](CCC(=O)O)NC(=O)[C@H](CC(C)C)NC(=O)[C@H](CCC(N)=O)NC(=O)[C@H](CCCCN)NC(=O)[C@H](CO)NC(=O)[C@H](CC(C)C)NC(=O)[C@H](CC(=O)O)NC(=O)[C@H](CO)NC(=O)[C@@H](NC(=O)[C@H](Cc1ccccc1)NC(=O)[C@@H](NC(=O)CNC(=O)[C@@H]1CCCN1C(=O)[C@H]1CSC([C@@H](N)Cc2c[nH]cn2)N1)[C@@H](C)O)[C@@H](C)O)C(C)C)C(=O)N[C@@H](CCC(=O)O)C(=O)N[C@@H](Cc1ccccc1)C(=O)N[C@@H](CC(C)C)C(=O)N[C@@H](CCCCN)C(=O)N[C@@H](CC(N)=O)C(N)=O` (stereo partly shown) [Compound in Figure 17B], for which a half-maximal effect on GLP-1 receptor (setting [1]) (EC50) was put at 668 nM.
